Experiment [1] has as its target MNK1a (pre-activated GST-MNK1a) (Homo sapiens (Human), UniProt Q9BUB5). The experiment can be described thus: MNK1 in vitro kinase assay (assay 2), Z'-LYTE. Format: biochemical. The settings on record: for inhibition at 1 µM: compound concentration of 1 μM, read-out: Mnk1 % Inh. An excerpt:
B. MNK1 In Vitro Kinase Assay (Assay 2)
MNK1 Data can be obtained from the MNK1 Z′-LYTE® assay. The MNK1 Z′-LYTE® screening protocol and assay conditions are also described on www.invitrogen.com.
The assay is described as follows:
The Z′-LYTE® biochemical assay employs a fluorescence-based, coupled-enzyme format and is based on the differential sensitivity of phosphorylated and non-phosphorylated peptides to proteolytic cleavage. The peptide substrate is labeled with two fluorophores—one at each end—that make up a FRET pair.
In the primary reaction, the kinase transfers the gamma-phosphate of ATP to a single tyrosine, serine or threonine residue in a synthetic FRET-peptide. In the secondary reaction, a site-specific protease recognizes and cleaves non-phosphorylated FRET-peptides. Phosphorylation of FRET-peptides suppresses cleavage by the Development Reagent. Cleavage disrupts FRET between the donor (i.e., coumarin) and acceptor (i.e., fluorescein) fluorophores on the FRET-peptide, whereas uncleaved, phosphorylated FRET-peptides maintain FRET. A ratiometric method, which calculates the ratio (the Emission Ratio) of donor emission to acceptor emission after excitation of the donor fluorophore at 400 nm, is used to quantitate reaction progress, as shown in the equation below. Emission Ratio=Coumarin Emission(445 nm)/Fluorescein Emission(520 nm)
The inhibition of kinase activity of MNK1a was assessed using pre-activated GST-MNK1a. The 2×MKNK1 (MNK1) mixture is prepared in 50 mM HEPES pH 7.5, 0.01% BRIJ-35, 10 mM MgCl2, 4 mM MnCl2, 1 mM EGTA, 2 mM DTT. The final 10 μL Kinase Reaction consists of 13.5-54 ng MKNK1 (MNK1) and 2 μM Ser/Thr 07 in 50 mM HEPES pH 7.5, 0.01% BRIJ-35, 10 mM MgCl2, 2 mM MnCl2, 1 mM EGTA, 1 mM DTT. After the 1 hour Kinase Reaction incubation, 5 μL of a 1:32768 dilution of Development Reagent A is added.
The Test Compounds are screened in 1% DMSO (final) in the well.
All Peptide/Kinase Mixtures are diluted to a 2×working concentration in the MNK1 Kinase Buffer.
All ATP Solutions are diluted to a 4×working concentration in Kinase Buffer (50 mM HEPES pH 7.5, 0.01% BRIJ-35, 10 mM MgCl2, 1 mM EGTA).
Development Reagent Solution:
The Development Reagent is diluted in Development Buffer
Bar-coded Corning, low volume NBS, 384-well plate (Corning Cat. #3676)
1. 2.5 μL—4×Test Compound
2. 5 μL—2×Peptide/Kinase Mixture
5. 60-minute Kinase Reaction incubation at room temperature
6. 5 μL—Development Reagent Solution
8. 60-minute Development Reaction incubation at room temperature
9. Read on fluorescence plate reader and analyze the data
The following equations are used for each set of data points:
Correction for Background Fluorescence: FISample−FITCFI Ctl Emission Ratio (using values corrected for background fluorescence):Coumarin Emission (445 nm)/Fluorescein Emission (520 nm)
% Phosphorylation (% Phos): 1−((Emission Ratio×F100%)−C100%)/((C0%−C100%)+[Emission Ratio×(F100%−F0%)])*100
% Inhibition: 1−(% PhosSample/% Phos0% Inhibition Ctl)*100 FI=Fluorescence Intensity C100%=Average Coumarin emission signal of the 100% Phos. Control C0%=Average Coumarin emission signal of the 0% Phos. Control F100%=Average Fluorescein emission signal of the 100% Phos. Control F0%=Average Fluorescein emission signal of the 0% Phos. Control
SelectScreen® Kinase Profiling Service uses XLfit from IDBS. The dose response curve is curve fit to model number 205 (sigmoidal dose-response model).

Experiment [2] has as its target MNK2a (pre-activated GST-MNK2a) (Homo sapiens (Human), UniProt Q9HBH9). Put plainly: MNK2a in vitro kinase assay (assay 1), ADP-Glo. Format: biochemical. The note with it: read-out: Mnk2 IC50. As to the method: A. MNK2a In Vitro Kinase Assay (Assay 1)
The inhibition of kinase activity of MNK2a was assessed using pre-activated GST-MNK2a. The white, 384-well OptiPlate F plates were purchased from PerkinElmer. The ADP-Glo Kinase Assay (including ultra pure ATP) was purchased from Promega (V9103). Activated MNK2a was obtained as described in WO2011/104340. […] ID No. 5 of WO 2011/104340 by the C-terminal —CONH2 group, was purchased from Thermo Fisher Scientific. All other materials were of highest grade commercially available. Compounds are tested in either serial dilutions or single dose concentrations. The compound stock solutions are 10 mM in 100% DMSO The serial compound dilutions are prepared in 100% DMSO followed by 1:27.3 intermediate dilution in assay buffer. The final DMSO concentration in assay will be <3%.
In the 384-well plates 3 μl of test compound from the intermediate dilution is mixed with 4 μl of the activated MNK2 enzyme (final concentration of 10 nM) and 4 μl of the peptide (final concentration of 25 μM)/ultra pure ATP (final concentration of 20 μM), all dissolved in assay buffer. This step is followed by an incubation time of 90 min, then 10 μl of ADP Glo reagent are added, followed by 40 min of incubation. Then 20 μl of kinase detection reagent are admixed. The plates are sealed and after an incubation period of 30 min, the luminescence signal is measured in an Envision reader to determine the amount of produced ADP. All incubation steps are performed at room temperature.
The assay buffer consists of 20 mM HEPES, 2 mM DTT, 0.01% BSA, 20 mM MgCl2 and 0.1% Pluronic F-127.
The luminescent signal generated is proportional to the ADP concentration produced and is correlated with activated MNK2 activity. The analysis of the data is performed by the calculation of the percentage of ATP consumption of activated MNK2 in the presence of the test compound compared to the consumption of ATP in the presence of activated MNK2 without compound. (RLU(sample)−RLU(low control))*100/(RLU(high value)−RLU(low control))
[RLU=Relative Luminescence Units]
Values of more than 100% CTL are normally related to compound/sample specific physico-chemical properties (e.g. solubility, light absorbance, fluorescence).
IC50 values based on dose response curves are calculated with the AssayExplorer software.

The values below come from US10167296B2, “Sulfoximine substituted quinazolines for pharmaceutical compositions” (EVOTEC INTERNATIONAL GMBH, priority 2014, dated 2019).

Sequence of MNK1a (pre-activated GST-MNK1a) (Q9BUB5 other isoform, or with tags, fused parts or gaps): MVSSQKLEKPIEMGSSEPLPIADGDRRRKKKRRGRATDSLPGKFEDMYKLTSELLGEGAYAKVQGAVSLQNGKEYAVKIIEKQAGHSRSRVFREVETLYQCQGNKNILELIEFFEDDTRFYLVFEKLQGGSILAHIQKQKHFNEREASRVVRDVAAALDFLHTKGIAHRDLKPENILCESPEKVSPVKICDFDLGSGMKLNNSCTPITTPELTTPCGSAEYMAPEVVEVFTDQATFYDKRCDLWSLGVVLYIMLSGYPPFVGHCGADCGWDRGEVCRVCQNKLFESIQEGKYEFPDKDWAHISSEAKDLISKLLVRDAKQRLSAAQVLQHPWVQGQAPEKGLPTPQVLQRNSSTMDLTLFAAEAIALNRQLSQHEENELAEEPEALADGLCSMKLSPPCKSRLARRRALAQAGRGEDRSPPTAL
Sequence of MNK2a (pre-activated GST-MNK2a) (Q9HBH9 whole entry): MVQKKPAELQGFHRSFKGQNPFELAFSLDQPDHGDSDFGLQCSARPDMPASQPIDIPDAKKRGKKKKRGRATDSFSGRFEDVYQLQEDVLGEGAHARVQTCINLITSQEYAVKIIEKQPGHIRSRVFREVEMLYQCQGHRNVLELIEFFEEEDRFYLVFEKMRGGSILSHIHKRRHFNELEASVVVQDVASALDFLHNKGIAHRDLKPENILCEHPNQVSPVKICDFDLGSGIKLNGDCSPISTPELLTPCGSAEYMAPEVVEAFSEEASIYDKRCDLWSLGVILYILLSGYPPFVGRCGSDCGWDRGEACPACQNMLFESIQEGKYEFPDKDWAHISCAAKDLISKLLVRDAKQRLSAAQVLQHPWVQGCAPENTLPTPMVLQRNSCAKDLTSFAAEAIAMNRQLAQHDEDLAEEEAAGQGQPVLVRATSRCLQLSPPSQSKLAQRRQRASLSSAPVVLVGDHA

With `Cc1c(OCCCN2CCN(C)C(=O)C2)c(N=S(C)(C)=O)cc2ncnc(Nc3ccc(F)cc3O[C@H](C)C(F)(F)F)c12` [Example 1.01], the IC50 amounted to 162 nM in experiment [1] and 5.5 nM in experiment [2]. Taken in the same sequence, the figures for `Cc1c(OCCCN2CCCC2)c(N=S(C)(C)=O)cc2ncnc(Nc3ccc(F)cc3O[C@H](C)C(F)(F)F)c12` [Example 1.02] were 51 nM and 2.4 nM. On to `CCOc1c(N=S(C)(C)=O)cc2ncnc(Nc3ccc(F)cc3O[C@H](C)C(F)(F)F)c2c1C` [Example 1.03], for which the IC50 in experiment [1] was 54 nM; in experiment [2], 1.6 nM. As for `Cc1c(OCCN2CCOCC2)c(N=S(C)(C)=O)cc2ncnc(Nc3ccc(F)cc3O[C@H](C)C(F)(F)F)c12` [Example 1.04], the IC50 in experiment [2] stood at 2.4 nM. Turning to `COc1c(N=S2(=O)CC(OC)C2)cc2ncnc(Nc3ccc(F)cc3O[C@H](C)C(=O)NCC(F)(F)F)c2c1C` (some centres unmarked) [Example 2.01], the inhibition at 1 µM in experiment [1] turned out to be 103%. In addition, in experiment [2], the IC50 was found to be 2.5 nM. Take `COc1c(N=S(C)(C)=O)cc2ncnc(Nc3ccc(F)cc3O[C@@H]3CO[C@H]4[C@@H]3OC[C@@H]4F)c2c1C` [Example 2.02]: the results for the IC50 in experiment [1] and in experiment [2] were 25 nM and 12.6 nM, respectively. Take `COc1c(N=S2(=O)CCCC2)cc2ncnc(Nc3ccc(F)cc3O[C@@H]3CO[C@@H]4CCO[C@@H]43)c2c1C` [Example 2.03]: in experiment [1], the inhibition at 1 µM was found to be 105%. Also, in experiment [2], the IC50 turned out to be 1.2 nM. Taken in the same sequence, the figures for `COc1c(N=S2(=O)CCC(O)CC2)cc2ncnc(Nc3ccc(F)cc3O[C@@H]3CO[C@@H]4CCO[C@@H]43)c2c1C` (some centres unmarked) [Example 2.04] were 105% and 1.2 nM. As to `COc1c(N=S2(=O)CCCC2)cc2ncnc(Nc3ccc(F)cc3O[C@H](C)C(=O)N[C@@H](C)C(F)(F)F)c2c1C` [Example 2.05], the inhibition at 1 µM in experiment [1] is 106%. In addition, in experiment [2], the IC50 was determined as 2.5 nM. Turning to `COc1c(N=S2(=O)CCC2)cc2ncnc(Nc3ccc(F)cc3O[C@@H]3CO[C@H]4[C@@H]3OC[C@H]4O)c2c1C` [Example 2.06], the IC50 in experiment [1] came to 18 nM; in experiment [2] it was 1.2 nM. In the case of `COc1c(N=S2(=O)CCC2)cc2ncnc(Nc3ccc(F)cc3O[C@H]3COC[C@@H]3O)c2c1C` [Example 2.07], the IC50 in experiment [2] is 2.7 nM.

As to `COc1c(N=S2(=O)CCCCC2)cc2ncnc(Nc3ccc(F)cc3O[C@@H]3CO[C@@H]4CCO[C@@H]43)c2c1C` [Example 2.08], in experiment [1], the inhibition at 1 µM amounted to 107%. In addition, in experiment [2], the IC50 was determined as 1.4 nM.

Turning to `COc1c(N=S2(=O)CCCC2)cc2ncnc(Nc3ccc(F)cc3O[C@@H]3CO[C@H]4[C@@H]3OC[C@H]4O)c2c1C` [Example 2.09], the IC50 was 14 nM in experiment [1] and 1.8 nM in experiment [2]. As for `COc1c(N=S2(=O)CCCC2)cc2ncnc(Nc3cccnc3O[C@@H]3CO[C@@H]4CCO[C@@H]43)c2c1C` [Example 2.10], the inhibition at 1 µM in experiment [1] was determined as 96%. The IC50 in experiment [2] turned out to be 3.3 nM.

Regarding `COc1c(N=S2(=O)CCC2)cc2ncnc(Nc3ccc(F)cc3O[C@H](C)C(=O)NCC(F)(F)F)c2c1C` [Example 2.11], the IC50 came out at 56 nM in experiment [1] and 1.9 nM in experiment [2]. Regarding `COc1c(N=S(C)(=O)C2CCOCC2)cc2ncnc(Nc3ccc(F)cc3O[C@@H]3CO[C@@H]4CCO[C@@H]43)c2c1C` (some centres unmarked) [Example 2.12], in experiment [1], the inhibition at 1 µM stood at 95%. Further, in experiment [2], the IC50 came out at 2.3 nM. Taken in the same sequence, the figures for `COc1c(N=S(C)(C)=O)cc2ncnc(Nc3ccc(F)cc3O[C@@H]3CO[C@H]4[C@@H]3OC[C@H]4O)c2c1C` [Example 2.13] were 103% and 1.7 nM.

Turning to `COc1c(N=S(C)(C)=O)cc2ncnc(Nc3ccc(F)cc3OC3CCOCC3)c2c1C` [Example 2.14], in experiment [1], the inhibition at 1 µM turned out to be 98%. Further, in experiment [2], the IC50 is 3.7 nM.

Take `Cc1c(OCCCN2CCOCC2)c(N=S2(=O)CCC2)cc2ncnc(Nc3ccc(F)cc3O[C@H](C)C(F)(F)F)c12` [Example 2.15]: the figures for the concentration for half-maximal inhibition (IC50) in experiment [1] and in experiment [2] were 42 nM and 1.4 nM, respectively. With `COc1c(N=S(C)(C)=O)cc2ncnc(Nc3ccc(F)cc3O[C@H](C)C(F)(F)F)c2c1C` [Example 2.16], the inhibition at 1 µM in experiment [1] was found to be 102%. For the same compound, in experiment [2], the IC50 came to 3.5 nM. For the compound `COc1c(N=S2(=O)CCOCC2)cc2ncnc(Nc3ccc(F)cc3O[C@@H]3CO[C@@H]4CCO[C@@H]43)c2c1C` [Example 2.17], in experiment [1], the inhibition at 1 µM came to 94%. Also, the IC50 in experiment [2] worked out at 2.1 nM. Regarding `COc1c(N=S2(=O)CCC2)cc2ncnc(Nc3ccc(F)cc3O[C@@H]3CO[C@H]4[C@@H]3OC[C@H]4OC)c2c1Cl` [Example 2.18], the inhibition at 1 µM in experiment [1] came out at 95%. In addition, the IC50 in experiment [2] stood at 1.3 nM. Taken in the same sequence, the figures for `COc1c(N=S(C)(=O)C(C)(C)C)cc2ncnc(Nc3ccc(F)cc3O[C@@H]3CO[C@@H]4CCO[C@@H]43)c2c1C` (some centres unmarked) [Example 2.19] were 102% and 2.8 nM. `COc1c(N=S(C)(C)=O)cc2ncnc(Nc3cc4cn[nH]c4cc3OC(C)C)c2c1C` [Example 2.20]: the values for the IC50 in experiment [1] and in experiment [2] were 57 nM and 3.8 nM, respectively. `COc1c(N=S2(=O)CCC2)cc2ncnc(Nc3cccnc3O[C@@H]3CO[C@@H]4CCO[C@@H]43)c2c1C` [Example 2.21]: the values for the half-maximal inhibitory concentration (IC50) in experiment [1] and in experiment [2] were 33 nM and 1.9 nM, respectively. `COc1c(N=S(C)(C)=O)cc2ncnc(Nc3ccc(F)cc3O[C@H]3CC[C@H](O)CC3)c2c1C` [Example 2.22]: the inhibition at 1 µM in experiment [1] worked out at 98%. In addition, in experiment [2], the IC50 was 2.5 nM. Taken in the same sequence, the figures for `COc1c(N=S(C)(=O)CCO)cc2ncnc(Nc3ccc(F)cc3O[C@@H]3CO[C@@H]4CCO[C@@H]43)c2c1C` (some centres unmarked) [Example 2.23] were 105% and 2 nM. Consider `COc1c(N=S(C)(C)=O)cc2ncnc(Nc3ccc(F)cc3O[C@@H]3CO[C@H]4[C@@H]3OC[C@H]4OC)c2c1Cl` [Example 2.28], for which the IC50 in experiment [2] was determined as 2.2 nM.
